According to ChEMBL document CHEMBL3616419, “Synthesis, structure-activity relationship and biological evaluation of novel nitrogen mustard sophoridinic acid derivatives as potential anticancer agents” (Bioorg Med Chem Lett, 2015):
In brackets after ≈: the same amount, converted by molar mass.

Legend:
HepG2 = test: Antiproliferative activity against human HepG2 cells incubated for 48 hrs by MTT assay; type: functional, cell-based; settings: HepG2, 48 h
[1] = Stability of the compound; type: physicochemical
[2] = Antitumor activity against […] HepA cells xenografted in KM mouse assessed as inhibition of tumor weight at 18 mg/kg, iv dosed for 10 days relative to untreated control; type: functional; settings: 240 h, read-out: TGI
[3] = Antitumor activity against […] HepA cells xenografted in KM mouse assessed as inhibition of tumor weight at 36 mg/kg, iv dosed for 10 days relative to untreated control; type: functional; settings: 240 h, read-out: TGI
Mus musculus = test: Toxicity in […] HepA cells xenografted KM mouse assessed as reduction in body weight at 18 to 72 mg/kg, iv dosed for 10 days relative to untreated control; type: organism-based; set-up: scale not given: the % may be the effect or the level left; settings: in vivo, 240 h
[4] = Antitumor activity against […] HepA cells xenografted in KM mouse assessed as inhibition of tumor weight at 72 mg/kg, iv dosed for 10 days relative to untreated control; type: functional; settings: 240 h, read-out: TGI

| Structure (SMILES) | IC50 (HepG2) [µg/mL] | Stability [1] | further results |
| --- | --- | --- | --- |
| COC(=O)CCC[C@@H]1NC[C@H]2CCCN3CCC[C@H]1[C@H]23 | 1650 (≈ 5890 µM) |  |  |
| CCOC(=O)CCC[C@@H]1NC[C@H]2CCCN3CCC[C@H]1[C@H]23 | 223 (≈ 757 µM) |  |  |
| CCCOC(=O)CCC[C@@H]1NC[C@H]2CCCN3CCC[C@H]1[C@H]23 | 196 (≈ 635 µM) |  |  |
| CC(C)OC(=O)CCC[C@@H]1NC[C@H]2CCCN3CCC[C@H]1[C@H]23 | 93.1 (≈ 302 µM) |  |  |
| CCCCOC(=O)CCC[C@@H]1NC[C@H]2CCCN3CCC[C@H]1[C@H]23 | 136 (≈ 421 µM) |  |  |
| COC(=O)CCC[C@H]1[C@H]2CCCN3CCC[C@H](CN1C(=O)c1ccc(N(CCCl)CCCl)cc1)[C@@H]23 | 167 (≈ 319 µM) | Unstable |  |
| CCOC(=O)CCC[C@H]1[C@H]2CCCN3CCC[C@H](CN1C(=O)c1ccc(N(CCCl)CCCl)cc1)[C@@H]23 | 91.2 (≈ 169 µM) | Unstable |  |
| CCCOC(=O)CCC[C@H]1[C@H]2CCCN3CCC[C@H](CN1C(=O)c1ccc(N(CCCl)CCCl)cc1)[C@@H]23 | 44.6 (≈ 80.7 µM) | Unstable |  |
| CC(C)OC(=O)CCC[C@H]1[C@H]2CCCN3CCC[C@H](CN1C(=O)c1ccc(N(CCCl)CCCl)cc1)[C@@H]23 | 2.39 (≈ 4.33 µM) | Unstable |  |
| CCCCOC(=O)CCC[C@H]1[C@H]2CCCN3CCC[C@H](CN1C(=O)c1ccc(N(CCCl)CCCl)cc1)[C@@H]23 | 25 (≈ 44.1 µM) | Unstable |  |
| O=C(CCC[C@H]1[C@H]2CCCN3CCC[C@H](CN1Cc1ccccc1)[C@@H]23)Nc1ccc(N(CCCl)CCCl)cc1 | 0.47 (≈ 0.822 µM) |  | inhibition in vivo at 18 mg/kg [2]: 42.5%; inhibition in vivo at 36 mg/kg [3]: 47.3%; Activity (Mus musculus): <= 20%; inhibition in vivo at 72 mg/kg [4]: 58.2% |
| O=C(CCC[C@H]1[C@H]2CCCN3CCC[C@H](CN1Cc1ccccc1)[C@@H]23)OCc1ccc(N(CCCl)CCCl)cc1 | 1.63 (≈ 2.78 µM) |  |  |
| O=C(CCC[C@H]1[C@H]2CCCN3CCC[C@H](CN1Cc1ccccc1)[C@@H]23)N(CCCl)CCCl | 2.74 (≈ 5.7 µM) |  |  |
| N[C@@H](Cc1ccc(N(CCCl)CCCl)cc1)C(=O)O [MELPHALAN] | 0.41 (≈ 1.34 µM) |  |  |
| O=C1CCC[C@@H]2[C@H]3CCCN4CCC[C@H](CN12)[C@@H]34 [SOPHORIDINE] | 1160 (≈ 4670 µM) |  |  |
